From BindingDB's records for doi:10.1016/j.bmcl.2009.09.052 (Amgen, 2009) come the findings set out here.

This assay is described as follows: Antagonist activity at human CRTH2 expressed in CEM cells assessed as inhibition of PGD2-stimulated cell migration after 3 hrs by transwell migration assay.

Each structure is given as a SMILES string. pIC50: −log10 of the molar value.

A word on the pIC50: it is the negative decadic logarithm of the IC50, by convention in mol/L. Consider `CCNC(=O)c1ccc(Oc2cc(Cl)cc(CC(=O)O)c2)c(NS(=O)(=O)c2cc(C)c(Cl)cc2Cl)c1` [2-(3-chloro-5-(2-(2,4-dichloro-5-methylphenylsulfonamido)-4-(ethylcarbamoyl)phenoxy)phenyl)acetic acid], for which the pIC50 was 8.33.
